The record followed here is ChEMBL document CHEMBL2311364, “Novel peptidomimetics as BACE-1 inhibitors: synthesis, molecular modeling, and biological studies” (Bioorg Med Chem Lett, 2013).

Test [1] has as its target T1, Beta-secretase 1 (Homo sapiens, UniProt P56817). The test is described as follows: Inhibition of BACE1 in HEK293 cells expressing modified BACE cleavage sequence of APP, NFEV and K612V mutation. In kind it is cell-based.
The target in test [2] is T1, Beta-secretase 1. Nature of the test: Inhibition of BACE1 in human SHSY5Y cells expressing APP NFEV and wild-type alpha-cleavage site. It counts as cell-based, SH-SY5Y.
Test [3] deals with T1, Beta-secretase 1. The test is described as follows: Inhibition of human recombinant BACE-1 using acetyl-C(W8044-Eu)-EVNLDAEFK-QSY7 as substrate by TR-FRET assay.
In test [4] the target is T1, Beta-secretase 1. Nature of the test: Inhibition of human recombinant BACE-1 using acetyl-C(W8044-Eu)-EVNLDAEFK-QSY7 as substrate at 100 uM by TR-FRET assay. Background: In TR-FRET formats the signal depends on donor and acceptor labels being close together.

The structures appear in SMILES notation. Calls of active or inactive are those of the source. The calls are words filed in the database; no cut-off is given here. Bounds are passed on as bounds.

T1 sequence (P56817 whole entry): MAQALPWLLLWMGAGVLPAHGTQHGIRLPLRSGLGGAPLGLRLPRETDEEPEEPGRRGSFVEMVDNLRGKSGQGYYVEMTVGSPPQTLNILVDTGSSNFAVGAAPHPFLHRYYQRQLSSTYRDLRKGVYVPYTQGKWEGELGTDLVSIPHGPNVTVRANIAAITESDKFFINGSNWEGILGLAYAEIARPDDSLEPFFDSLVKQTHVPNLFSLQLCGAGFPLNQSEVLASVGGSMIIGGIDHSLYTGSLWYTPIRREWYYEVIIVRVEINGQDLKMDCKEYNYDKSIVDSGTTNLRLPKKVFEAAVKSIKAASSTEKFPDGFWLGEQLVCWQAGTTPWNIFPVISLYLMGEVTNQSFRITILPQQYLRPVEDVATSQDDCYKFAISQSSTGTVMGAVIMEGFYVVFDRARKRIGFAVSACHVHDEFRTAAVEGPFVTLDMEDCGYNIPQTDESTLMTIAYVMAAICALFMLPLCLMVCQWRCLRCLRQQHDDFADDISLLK

As to `O=C(N[C@H](C(=O)Nc1cc(C(CO)NCc2ccccc2)ccc1C(=O)c1ccccc1)c1ccccc1)OCc1ccccc1` (stereo partly drawn), the 50% inhibitory concentration (IC50) is over 2600 nM at Beta-secretase 1 [1], over 1200 nM against Beta-secretase 1 [2] and 4.1 µM at Beta-secretase 1 [3].

In the case of `O=C1Nc2cc(C(O)CNCc3ccccc3)ccc2C(c2ccccc2)=N[C@@H]1c1ccccc1` (stereo partly drawn), at Beta-secretase 1 [4], the inhibition entry was “inactive”.

With `O=C1Nc2ccccc2C(c2ccccc2)=N[C@H]1C(O)CN1CCNCC1` (stereo partly drawn), the IC50 at Beta-secretase 1 [3] was 12.5 µM.

In the case of `CC(C)(C)OC(=O)N1CCN(CC(O)c2ccc(C(=O)c3ccccc3)c(NC(=O)[C@H](NC(=O)OCc3ccccc3)c3ccccc3)c2)CC1` (stereo partly drawn), the IC50 at Beta-secretase 1 [3] came out at 4.9 µM.

With `O=C1Nc2cc(C(CO)NCc3ccccc3)ccc2C(c2ccccc2)=N[C@@H]1c1ccccc1` (stereo partly drawn), at Beta-secretase 1 [3], the IC50 stood at 10.9 µM.

For the compound `CC(C)(C)OC(=O)N1CCN(c2cccc3c2NC(=O)[C@@H](c2ccccc2)N=C3c2ccccc2)CC1`, at Beta-secretase 1 [3], the IC50 was 43 µM.

As to `CC(C)(C)OC(=O)N1CCN(c2cccc3c2NC(=O)[C@H](CCc2ccccc2)N=C3c2ccccc2)CC1`, at Beta-secretase 1 [4], the inhibition result is “inactive”.

As for `O=C1Nc2c(cccc2N2CCNCC2)C(c2ccccc2)=N[C@H]1c1ccccc1`, the inhibition result at Beta-secretase 1 [4] was “inactive”.

Regarding `CC(C)(C)OC(=O)N1CCN(CC(O)c2ccc3c(c2)NC(=O)[C@@H](c2ccccc2)N=C3c2ccccc2)CC1` (stereo partly drawn), the inhibition entry on Beta-secretase 1 [4] is “inactive”.

`O=C(N[C@@H](C(=O)Nc1cc(C(CO)NCc2ccccc2)ccc1C(=O)c1ccccc1)c1ccccc1)OCc1ccccc1` (stereo partly drawn): the IC50 on Beta-secretase 1 [3] was determined as 4.2 µM.

With `O=C1Nc2cc(C(CO)NCc3ccccc3)ccc2C(c2ccccc2)=N[C@H]1c1ccccc1` (stereo partly drawn), the IC50 on Beta-secretase 1 [1] was over 22000 nM; against Beta-secretase 1 [2], over 11000 nM.

As for `CC(C)(C)OC(=O)N1CCN(c2cccc3c2NC(=O)[C@H](Cc2ccccc2)N=C3c2ccccc2)CC1`, the inhibition result on Beta-secretase 1 [4] is “inactive”.

Turning to `O=C(N[C@@H](C(=O)Nc1cc(C(O)CNCc2ccccc2)ccc1C(=O)c1ccccc1)c1ccccc1)OCc1ccccc1` (stereo partly drawn), the IC50 is over 2600 nM on Beta-secretase 1 [1], over 1200 nM against Beta-secretase 1 [2] and 2.6 µM at Beta-secretase 1 [3].

Regarding `CC(C)(C)OC(=O)N1CCN(c2cccc(C(=O)c3ccccc3)c2NC(=O)[C@@H](NC(=O)OCc2ccccc2)c2ccccc2)CC1`, at Beta-secretase 1 [4], the inhibition result was “inactive”.

Regarding `CC(C)(C)OC(=O)N1CCN(c2cccc3c2NC(=O)[C@H](c2ccccc2)N=C3c2ccccc2)CC1`, the half-inhibitory concentration (IC50) on Beta-secretase 1 [3] worked out at 35 µM.

As to `O=C(N[C@H](C(=O)Nc1cc(C(O)CNCc2ccccc2)ccc1C(=O)c1ccccc1)c1ccccc1)OCc1ccccc1` (stereo partly drawn), the figures for the IC50 against Beta-secretase 1 [1], on Beta-secretase 1 [2] and on Beta-secretase 1 [3] were over 2600 nM, over 1200 nM and 2.4 µM, respectively.

What is called IC50 is the concentration needed to halve the response being measured.
